# Patent US20090275605A1, “3,11 b-cis-Dihydrotetrabenazine for the Treatment of a Proliferative Disease or an Inflammatory Disease” (CAMBRIDGE LABORATORIES (IRELAND) LIMITED, priority 2005, published 2009)
# “And” between values parts separate entries of the source, which are not always exact repeats. Identical values can stand only once. “Also recorded” adds a separate entry of the source.
# Assays:
# Sigma σ1 Receptor = biological target: T1, Sigma σ1 Receptor (Homo sapiens, UniProt Q99720); experiment: Sigma σ1 receptor radioligand binding ([3H]Haloperidol); settings: for Percentage Inhibition of Specific Binding at Sigma-1 Receptor: 10 μM solutions, human jurkat cells, 8 nM [3H]Haloperidol
# T1 construct: Source: Human jurkat cells; endogenous in cells; host or cells: Human Jurkat cells
# T1 sequence (Q99720 whole entry): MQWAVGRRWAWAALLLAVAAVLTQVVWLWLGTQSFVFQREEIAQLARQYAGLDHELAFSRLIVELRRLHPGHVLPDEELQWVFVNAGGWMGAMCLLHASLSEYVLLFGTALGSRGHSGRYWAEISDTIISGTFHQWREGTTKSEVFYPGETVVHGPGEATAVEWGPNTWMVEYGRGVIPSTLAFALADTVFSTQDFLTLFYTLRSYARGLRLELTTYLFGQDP
# Protocol: The four dihydrotetrabenazine isomers A, B, C and D subjected to specific binding assays to test their ability to bind to the sigma-1 and sigma-2 receptors. (a) Sigma σ1 Receptor: Reference: […] et al., Pharmacol. Exp. Ther., 289:251-260, (1999) Source: Human jurkat cells […] Vehicle: 1% DMSO Incubation time/Temp: 4 hours (25° C.
# Sigma σ2 Receptor = biological target: T2, Sigma σ2 Receptor (Rattus norvegicus, UniProt Q5U3Y7); experiment: Sigma σ2 receptor radioligand binding ([3H]Ifenprodil); settings: 10 μM solutions; Wistar rat brain; 3 nM [3H]Ifenprodil
# T2 construct: Source: Wistar rat brain; from tissue; host or cells: Wistar rat brain
# T2 sequence (Q5U3Y7 1-176): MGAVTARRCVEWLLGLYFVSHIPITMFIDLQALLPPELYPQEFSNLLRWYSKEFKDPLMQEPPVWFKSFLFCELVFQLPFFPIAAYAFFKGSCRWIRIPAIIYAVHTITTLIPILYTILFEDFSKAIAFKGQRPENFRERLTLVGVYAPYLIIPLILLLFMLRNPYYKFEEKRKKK
# Protocol: The four dihydrotetrabenazine isomers A, B, C and D subjected to specific binding assays to test their ability to bind to the sigma-1 and sigma-2 receptors.
# Reference: Hashimoto et al., Eur. J. Pharmacol., 236:159-163, (1993) Source: Wistar rat brain
# Incubation time/Temp: 60 minutes @ 37° C.
# Bmax: 1.3 pmole/mg protein Specific binding: 85% Quantitation method: Radioligand binding Significance criteria: ≧50% of maximum stimulation or inhibition
# [1] = system: LPS/IFNγ stimulated human CD14+ monocytes; experiment: LPS/IFN stimulated production of cytokines by human monocytes (CBA cytokine analysis); assay type: cell-based
# Protocol: The compounds of the invention were tested to determine the extent to they can modulate the production of cytokines by human monocytes. Monocytes are precursors of macrophages and are a key source of inflammatory cytokines in a wide range of disease states.
# The following treatment groups were set up.
# MACS Buffer: 1×PBS pH 7.2, 2 mM EDTA (Sigma), 5% human AB serum Culture Media: 500 ml RPMI 1640 (Invitrogen), 5 ml Penstrep (Sigma), 5 ml L-glutamine (Invitrogen), 10 ml HEPES (Sigma), 5% autologous plasma. Compounds: Stock at 10 mM in absolute ethanol. LPS: Salmonella abortis at 1 mg/ml (Sigma, Cat # LI 887). IFNγ: Recombinant human at 10 μg/ml (BD Pharmacia, Cat # 554617). MACS CD14 positive selection beads and LS columns (Miltenyi Biotech). CD14: FITC antibody (Miltenyi Biotech) Buffy coat obtained from Bristol National Blood Services. 1 ml of blood should give 7×10^6 total cells.
# Spin buffycoat at 3500 rpm, 10 min. Remove upper plasma layer and heat-inactivate at 56° C., 30 min. Spin at 3500 rpm, 10 min to remove heat-inactivated complement proteins etc.
# 1. Resuspend remaining buffycoat in an equal volume of RPMI 1 640 medium and mix by inversion. 2. Prewarm histopaque (Sigma) to room temperature (RT) and add 10 ml to a universal. 3. Gently overlay with 15 ml blood/medium mix. 4. Spin at 1600 rpm for 25 minutes at RT (no brake). 5. PBMC are separated into the interface layer between the medium and the histopaque, remove cells to a 50 ml Falcon and add 10 ml medium.
# 6. Spin at 1800 rpm for 10 min at RT.
# 7. Wash ×3 with 40 ml RPMI medium and resuspend in culture medium. Isolate CD14^+ Cells by Positive Selection with CD14^+ MicroBeads Work on ice, with pre-cooled solutions. 1. Determine cell numbers (313×10×5×10^4=1.565×10^8 total cells) 2. Remove 100 μl cell sample for Fluorescence-Activated Cell-Sorting (FACS) analysis (pre-selection sample). 3. Spin at 1800 rpm for 10 minutes at 4° C. Remove supernatant. 4. Resuspend pellet in 80 μl buffer per 1×10^7 total cells (2400 μL/total cells). 5. Add 20 μl CD14 MicroBeads per 1×10^7 total cells (400 μl/total cells). 6. Mix well and incubate for 15 minutes at 4-8° C. 7. Wash cells with 1-2 ml buffer, spin at 300×g, 10 minutes at 4° C. Remove supernatant. 8. Resuspend up to 1×10^8 cells in 500 μl buffer (1 ml/total cells). Magnetic Separation with LS Column 1. Place column in magnetic field of MACS® Separator. Rinse column with 3 ml of MACS buffer. 2. Add cell suspension to column. 3. Collect unlabelled cells which pass through. Wash column with 3×3 ml buffer, allowing the column reservoir to empty between each wash. Collect total effluent (unlabelled cell fraction). 4. Remove column from separator and place on collection tube. 5. Add 5 ml buffer to column, immediately flushing out fraction with magnetically labelled cells by applying column plunger. 6. Spin cells in MACS Buffer and resuspend cell pellet in media. 7. Perform cell count on positively selected cells. • 71×20×5×10^4=7.1×10^7 cells/ml. Have 1.75 ml∴1.24×10^8 total cells. 8. Take sample to check purity by FACS add 10 μl CD14-FITC antibody and incubate, 5 minutes at 4-8° C.
# Prepare compounds at 10 mM in absolute ethanol. Dilute prior to culture in media to the required concentrations.
# Isolated CD14^+ monocytes were cultured in 24-well plates at 1×10^6 cells/ml/well. The monocytes were cultured in the presence of the test compounds and controls at various dilutions as set out in the table below. After overnight incubation, LPS (10 μg/ml) and IFNγ (100 ng/ml) were added to stimulate monocyte activation and elevate CB2 expression. After 48 hours, the supernatants were removed for CBA cytokine analysis.
# Bring all buffers to room temperature and vortex before use 1. Make up assay buffer by adding to 450 ml distilled H2O and mixing gently. Store at 4° C. 2. Make up biotin-conjugate mix by 600 μl of each biotin-conjugates into a universal. 3. Make up bead mix by adding 300 μl of each bead set. 4. […]
# [2] = system: T cells (balb/c mouse spleen cells); experiment: T cell proliferation (3H-thymidine incorporation, anti-CD3 coated plates); assay type: cell-based; settings: plates 1-3 are triplicates
# Protocol: The compounds of the invention were tested to determine the extent to they can inhibit T cell proliferation. T cells are responsible for co-ordinating the adaptive immune response and are drivers of inflammation in a wide range of disease states.
# HBSS+2% HEPES buffer (500 ml+10 ml), Alpha MEM (500 ml)+2% HEPES (10 ml)+1% Pen/strep (5 ml)+2% L-Glutamine (10 ml)+50 μM 2-ME (500 μl) and Normal Mouse serum (NMS)
# 1. Coat 3×96 well plates columns 1-8, rows A-H with 100 μl anti-mouse CD3 at […] in PBS. 192 well in total, therefore made up 24 mls in PBS by adding 17 μl of stock at 1.44 mg/ml. Incubate 2 hours 37° C. 2. Pooled blood from 2 balb/c mice following cardiac puncture for preparation of NMS and removed spleens into HBSS+Hepes. 3. Placed blood at 37° C. for 30 minutes to clot, spun 3,000 rpm, 10 minutes in chilspin. Removed serum, filter sterilised and kept in fridge until use. 4. Transferred spleens to petri dishes containing 10 ml HBSS, used clean sterile wire mesh placed over spleen to release cells using a glass rod. Washed cells off mesh using pasteur pipette and transferred to a 15 ml tube. Spun at 1000 rpm for 10 minutes at room temperature (RT). 5. Resuspended cells, added 0.5 ml sterile DW to lyse RBC, mixed and immediately diluted in HBSS, transfered to 50 ml tube passing through cell strainer (70 μM) to remove debris, spun as above, washed cells once more in HBSS and finally resuspended in […] alpha MEM containing supplements (as above). 6. Cell counts—252 cells×2×5×10^4=2.52×10^7 cells/ml in 4 mls=10^8 cells in total. Dilute 2 mls to 25 mls to give a cell concentration of 2×10^6 cells/ml. 7. Added 250 μl NMS to cells to give a concentration of 1%. 8. Washed anti-CD3 coated plates 3×PBS. 9. Transferred 100 μl aliquots of cells to coated wells, rows A-H columns 1-8 of 3×96-well plates. Add equal volume of compounds diluted in a 96 well plate as shown below.
# Transferred 3.5 μl compound at 10 mM to 346.5 μl media (1/100), transferred 35 μl of 1/100 dilution to 315 μl media (1/10) and so on down plate to give serial 1/10 dilutions of compound. Transferred 100 μl aliquots of different compound dilutions to wells of triplicate plates containing T cells.
# Culture for 48 hours, then add a drop (16 μl) of ^3H-thymidine to each well and incubate overnight at 37° C. 5% CO2. Harvest. Measure ^3H-thymidine incorporation.
smiles,measurement,setting,value
"COc1cc2c(cc1OC)[C@@H]1C[C@@H](O)[C@H](CC(C)C)CN1CC2 (single isomer, unassigned) [Isomer A]",Percentage Inhibition of Specific Binding at Sigma-1 Receptor,Sigma σ1 Receptor,48%
same,Percentage Inhibition of Specific Binding at Sigma-2 Receptor,Sigma σ2 Receptor,64%
"COc1cc2c(cc1OC)[C@H]1C[C@H](O)[C@@H](CC(C)C)CN1CC2 (single isomer, unassigned) [Isomer B]",reduced production of IL-4,"[1]; LPS/IFN stimulated monocytes, 100 μM to 10 pM, FIG. 2",at the majority of concentrations tested
same,reduced production of IL-2,"[1]; LPS/IFN stimulated monocytes, 100 μM to 10 pM, FIG. 3",at all concentrations tested
same,reduced production of IL-5,"[1]; LPS/IFN stimulated monocytes, 100 μM to 10 pM, FIG. 4",at the majority of concentrations tested
same,reduced production of IL-10,"[1]; LPS/IFN stimulated monocytes, 100 μM to 10 pM, FIG. 5",at the majority of concentrations tested
same,reduced production of IL-12,"[1]; LPS/IFN stimulated monocytes, 100 μM to 10 pM, FIG. 6",at all concentrations tested
same,production of a range of different cytokines in monocytes,"[1]; monocytes stimulated by LPS/IFN, FIGS. 1 to 6",reduced the production
same,T cell Proliferation (3H-thymidine incorporation),"[2]; listed as A = 100 μM, listed as RU350",42 and 51.4 and 28
same,T cell Proliferation (3H-thymidine incorporation),"[2]; listed as C = 1 μM, listed as RU350",62557.5 and 58812.6 and 46179.1
same,T cell Proliferation (3H-thymidine incorporation),"[2]; listed as D = 100 nM, listed as RU350",63867.2 and 67792.8 and 54194.4
same,T cell Proliferation (3H-thymidine incorporation),"[2]; listed as E = 10 nM, listed as RU350",66290 and 70736.7 and 53277.2
same,T cell Proliferation (3H-thymidine incorporation),"[2]; listed as F = 1 nM, listed as RU350",49054.3 and 74224 and 58924.4
same,T cell Proliferation (3H-thymidine incorporation),"[2]; listed as G = 100 pM, listed as RU350",46056.3 and 60937.4 and 59965.8
same,T cell Proliferation (3H-thymidine incorporation),"[2]; listed as H = 10 pM, listed as RU350",52646.7 and 41897.1 and 57220.4
same,Percentage Inhibition of Specific Binding at Sigma-1 Receptor,Sigma σ1 Receptor,82%
same,binding to the sigma-1 receptor (in words),Sigma σ1 Receptor; comparison of the four isomers,bind more strongly; also recorded: stronger binding
same,Percentage Inhibition of Specific Binding at Sigma-2 Receptor,Sigma σ2 Receptor,64%
"CCCCCCC(C)(C)c1cc(O)c2c(c1)OC(C)(C)C1CCC(=O)CC21 (stereo not shown) [Nab, Nabilone, reference compound]",T cell Proliferation (3H-thymidine incorporation),[2]; listed as B = 10 μM,72188.2 and 78370.5 and 40910.7
same,T cell Proliferation (3H-thymidine incorporation),[2]; listed as C = 1 μM,48534.9 and 44235.7 and 52155.5
same,T cell Proliferation (3H-thymidine incorporation),[2]; listed as D = 100 nM,65222 and 55348.5 and 41607.6
same,T cell Proliferation (3H-thymidine incorporation),[2]; listed as E = 10 nM,44970.2 and 46765.1 and 36442
same,T cell Proliferation (3H-thymidine incorporation),[2]; listed as F = 1 nM,36994.3 and 35152.2 and 37988.7
same,T cell Proliferation (3H-thymidine incorporation),[2]; listed as G = 100 pM,37202.7 and 44920.7 and 36359.1
same,T cell Proliferation (3H-thymidine incorporation),[2]; listed as H = 10 pM,38818.1 and 34530 and 39295.7
